# Measurements published in patent US8138168B1 (Takeda Pharmaceutical Company Limited, priority 2007, dated 2012).
# Target: T1, Recombinant human renin (Homo sapiens, UniProt P00797)
# T1 construct: isolate the active form (residues 67-406); made in house; host or cells: FreeStyle 293-F cells (transient expression of pcDNA3.1(+)/hREN)
# T1 sequence (P00797 67-406): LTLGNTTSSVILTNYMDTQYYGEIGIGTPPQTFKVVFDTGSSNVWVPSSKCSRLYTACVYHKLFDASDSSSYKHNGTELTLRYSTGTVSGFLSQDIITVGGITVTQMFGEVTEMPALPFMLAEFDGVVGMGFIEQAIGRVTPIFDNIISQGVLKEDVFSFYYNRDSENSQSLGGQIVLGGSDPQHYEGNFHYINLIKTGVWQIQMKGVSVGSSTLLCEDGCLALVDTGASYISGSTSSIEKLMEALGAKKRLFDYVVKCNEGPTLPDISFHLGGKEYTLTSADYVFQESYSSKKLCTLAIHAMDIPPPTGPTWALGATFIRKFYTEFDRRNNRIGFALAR
# Assay: In vitro enzymatic activity assay of renin inhibitors (fluorogenic peptide substrate)
# Format: biochemical
# Conditions: read-out: IC50 of Exemplified Compounds Against Renin
# Summary of the method: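 Recombinant human renin (3 nM final) pre-incubated 10 min at 37 °C with compounds in pH 7.4 Hepes/EDTA/DTT/0.1 mg/mL BSA/Brij35 buffer (optionally plus 2% BSA), 5% DMSO final; fluorogenic QXL520/HiLyteFluo488 peptide substrate added.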
row,SMILES,IC50 [nM]
1,"N[C@@H](CC(=O)N1CCCC(c2nc3ccccc3[nH]2)C1)Cc1csc2ccccc12 (stereo partly drawn) [Compound 29, (3R)-1-(3-(1H-benzo[d]imidazol-2-yl)piperidin-1-yl)-3-amino-4-(benzo[b]thiophen-3-yl)butan-1-one]",> 1000
2,"CC(=O)NCCn1c([C@@H]2CCCN(C(=O)C[C@H](N)Cc3ccc(-c4ccc(N5CCNC5=O)cc4)cc3)C2)nc2ccccc21 [Compound 462, N-(2-(2-((R)-1-((R)-3-amino-4-(4′-(2-oxoimidazolidin-l-yl)biphenyl-4-yl)butanoyl)piperidin-3-yl)-1H-benzo[d]imidazol-1-yl)ethyl)acetamide]",100 to 1000
3,"COCCCn1c([C@@H]2CCCN(C(=O)[C@@H]3CN(S(=O)(=O)c4cc(Cl)c(Cl)cc4Cl)C[C@H]3N)C2)nc2ccccc21 [Compound 345, ((3R,4S)-4-amino-1-(2,4,5-trichlorophenylsulfonyl)pyrrolidin-3-yl)((R)-3-(1-(3-methoxypropyl)-1H-benzo[d]imidazol-2-yl)piperidin-1-yl)methanone]",100 to 1000
4,"COCCCn1c([C@@H]2CCCN(C(=O)C[C@H](N)Cc3cccc(-c4ccccc4)c3)C2)nc2ccccc21 [Compound 122, (R)-3-amino-4-(biphenyl-3-yl)-1-((R)-3-(1-(3-methoxypropyl)-1H-benzo[d]imidazol-2-yl)piperidin-1-yl)butan-1-one]",< 100
5,"N[C@@H](Cc1ccccn1)C(=O)N1CCCC(c2nc3ccccc3[nH]2)C1 (stereo partly drawn) [Compound 62, (2S)-1-(3-(1H-benzo[d]imidazol-2-yl)piperidin-1-yl)-2-amino-3-(pyridin-2-yl)propan-1-one]",> 1000
6,"COCCCn1c([C@@H]2CCCN(C(=O)C[C@H](N)Cc3ccc(-c4ccc(NC(=O)OC)cc4)cc3)C2)nc2ccccc21 [Compound 176, methyl 4′-((R)-2-amino-4-((R)-3-(1-(3-methoxypropyl)-1H-benzo[d]imidazol-2-yl)piperidin-1-yl)-4-oxobutyl)biphenyl-4-ylcarbamate]",< 100
7,"O=C(C1CCCN1)N1CCCC(c2nc3ccccc3[nH]2)C1 (stereo not shown) [Compound 45, (3-(1H-benzo[d]imidazol-2-yl)piperidin-1-yl)(pyrrolidin-2-yl)methanone]",> 1000
8,"COCCCn1c([C@@H]2CCCN(C(=O)C[C@H](N)CNC(=O)c3cccc(Cl)c3)C2)nc2ccccc21 [Compound 298, N-((S)-2-amino-4-((R)-3-(1-(3-methoxypropyl)-1H-benzo[d]imidazol-2-yl)piperidin-1-yl)-4-oxobutyl)-3-chlorobenzamide]",100 to 1000
9,"COCCCNC(=O)c1ccc(-c2ccc(C[C@@H](N)CC(=O)N3CCC[C@@H](c4nc5ccccc5n4CCCOC)C3)cc2)cc1 [Compound 180, 4′-((R)-2-amino-4-((R)-3-(1-(3-methoxypropyl)-1H-benzo[d]imidazol-2-yl)piperidin-1-yl)-4-oxobutyl)-N-(3-methoxypropyl)biphenyl-4-carboxamide]",< 100
10,"COCCCn1c([C@@H]2CCCN(C(=O)[C@@H]3CN(S(=O)(=O)c4ccc5c(c4)CCO5)C[C@H]3N)C2)nc2ccccc21 [Compound 355, ((3R,4S)-4-amino-1-(2,3-dihydrobenzofuran-5-ylsulfonyl)pyrrolidin-3-y1)((R)-3-(1-(3-methoxypropyl)-1H-benzo[d]imidazol-2-yl)piperidin-1-yl)methanone]",100 to 1000
11,"N[C@@H](CC(=O)N1CCCC(c2nc3ccccc3[nH]2)C1)c1ccccc1[N+](=O)[O-] (stereo partly drawn) [Compound 26, (3S)-1-(3-(1H-benzo[d]imidazol-2-yl)piperidin-1-yl)-3-amino-3-(2-nitrophenyl)propan-1-one]",> 1000
12,"COCCCn1c([C@@]2(O)CCCN(C(=O)C[C@H](N)Cc3ccc(Cl)cc3)C2)nc2ccccc21 [Compound 248, (R)-3-amino-4-(4-chlorophenyl)-1((R)-3-hydroxy-3-(1-(3-methoxypropyl)-1H-benzo[d]imidazol-2-yl)piperidin-1-yl)butan-1-one]",> 1000
13,"COCCCn1c([C@@H]2CCCN(C(=O)C[C@H](N)CNC(=O)Nc3ccc(Cl)cc3)C2)nc2ccccc21 [Compound 283, 1-((S)-2-amino-4-((R)-3-(1-(3-methoxypropyl)-1H-benzo[d]imidazol-2-yl)piperidin-1-yl)-4-oxobutyl)-3-(4-chlorophenyl)urea]",100 to 1000
14,"COCCCn1c([C@@H]2CCCN(C(=O)C[C@H](N)Cc3ccc(-c4ccncc4OC)cc3)C2)nc2ccccc21 [Compound 144, (R)-3-amino-1-((R)-3-(1-(3-methoxypropyl)-1H-benzo[d]imidazol-2-yl)piperidin-1-yl)-4-(4-(3-methoxypyridin-4-yl)phenyl)butan-1-one]",< 100
15,"COCCCn1c([C@@H]2CCCN(C(=O)C[C@H](N)CNC(=O)Nc3ccccc3C(=O)OC)C2)nc2ccccc21 [Compound 329, methyl 2-(3-((S)-2-amino-4-((R)-3-(1-(3-methoxypropyl)-1H-benzo[d]imidazol-2-yl)piperidin-1-yl)-4-oxobutyl)ureido)benzoate]",> 1000
16,"COCCCn1c([C@@H]2CCCN(C(=O)[C@@H]3CN(C(=O)N4CCCC4)C[C@H]3N)C2)nc2ccccc21 [Compound 417, ((3R,4S)-4-amino-1-(pyrrolidine-1-carbonyl)pyrrolidin-3-yl)((R)-3-(1-(3-methoxypropyl)-1H-benzo[d]imidazol-2-yl)piperidin-1-yl)methanone]",> 1000
17,"COCCCn1c([C@@H]2CCCN(C(=O)[C@@H]3CN(C(=O)c4cccc(OC)c4)C[C@H]3N)C2)nc2ccccc21 [Compound 421, ((3R,4S)-4-amino-1-(3-methoxybenzoyl)pyrrolidin-3-yl)((R)-3-(1-(3-methoxypropyl)-1H-benzo[d]imidazol-2-yl)piperidin-1-yl)methanone]",> 1000
18,"COCCCn1c([C@@H]2CCCN(C(=O)C[C@H](N)Cc3ccc(-n4c(=O)n(C)c5ccccc54)cc3)C2)nc2ccccc21 [Compound 220, 1-(4-((R)-2-amino-4-((R)-3-(1-(3-methoxypropyl)-1H-benzo[d]imidazol-2-yl)piperidin-1-yl)-4-oxobutyl)phenyl)-3-methyl-1H-benzo[d]imidazol-2(3H)-one]",< 100
19,"COCCCn1c([C@@H]2CCCN(C(=O)C[C@H](N)Cc3ccc(Cl)c(Cl)c3)C2)nc2ccccc21 [Compound 77, (R)-3-amino-4-(3,4-dichlorophenyl)-1((R)-3-(1-(3-methoxypropyl)-1H-benzo[d]imidazol-2-yl)piperidin-1-yl)butan-1-one]",100 to 1000
20,"COCCCn1c([C@@H]2CCCN(C(=O)[C@@H]3CN(C(=O)c4ccco4)C[C@H]3N)C2)nc2ccccc21 [Compound 420, ((3R,4S)-4-amino-1-(furan-2-carbonyl)pyrrolidin-3-yl)((R)-3-(1-(3-methoxypropyl)-1H-benzo[d]imidazol-2-yl)piperidin-1-yl)methanone]",> 1000
21,"COCCCn1c([C@@H]2CCCN(C(=O)C[C@H](N)Cc3ccncc3)C2)nc2ccccc21 [Compound 78, (R)-3-amino-1-((R)-3-(1-(3-methoxypropyl)-1H-benzo[d]imidazol-2-yl)piperidin-1-yl)-4-(pyridin-4-yl)butan-1-one]",> 1000
22,"COCCCn1c([C@@H]2CCCN(C(=O)CC(N)C3CCNCC3)C2)nc2ccccc21 (stereo partly drawn) [Compound 94, 3-amino-1-((R)-3-(1-(3-methoxypropyl)-1H-benzo[d]imidazol-2-yl)piperidin-1-yl)-3-(piperidin-4-yl)propan-1-one]",> 1000
23,"COCCCn1c([C@@H]2CCCN(C(=O)[C@@H]3CN(C(=O)NC4CCCC4)C[C@H]3N)C2)nc2ccccc21 [Compound 399, (3S,4R)-3-amino-N-cyclopentyl-4-((R)-3-(1-(3-methoxypropyl)-1H-benzo[d]imidazol-2-yl)piperidine-1-carbonyl)pyrrolidine-1-carboxamide]",> 1000
24,"COCCCn1c([C@@H]2CCCN(C(=O)C[C@H](N)Cc3cccnc3)C2)nc2ccccc21 [Compound 82, (R)-3-amino-1((R)-3-(1-(3-methoxypropyl)-1H-benzo[d]imidazol-2-yl)piperidin-1-yl)-4-(pyridin-3-yl)butan-1-one]",> 1000
25,"COCCCn1c([C@@H]2CCCN(C(=O)C[C@H](N)CNC(=O)Nc3ccccc3)C2)nc2ccccc21 [Compound 269, 1-((S)-2-amino-4-((R)-3-(1-(3-methoxypropyl)-1H-benzo[d]imidazol-2-yl)piperidin-1-yl)-4-oxobutyl)-3-phenylurea]",100 to 1000
26,"COCCCn1c([C@@H]2CCCN(C(=O)C[C@H](N)Cc3ccc4ccccc4c3)C2)nc2c(OC)cccc21 [Compound 104, (R)-3-amino-1((R)-3-(4-methoxy-1-(3-methoxypropyl)-1H-benzo[d]imidazol-2-yl)piperidin-1-yl)-4-(naphthalen-2-yl)butan-1-one]",100 to 1000
27,"COCCCn1c([C@@H]2CCCN(C(=O)C[C@H](N)Cc3ccc(-c4ccncc4Cl)cc3)C2)nc2ccccc21 [Compound 131, (R)-3-amino-4-(4-(3-chloropyridin-4-yl)phenyl)-1-((R)-3-(1-(3-methoxypropyl)-1H-benzo[d]imidazol-2-yl)piperidin-1-yl)butan-1-one]",< 100
28,"CC(=O)NCCn1c([C@@H]2CCCN(C(=O)C[C@H](N)Cc3ccc4ccccc4c3)C2)nc2ccccc21 [Compound 239, N-(2-(2-((R)-1((R)-3-amino-4-(naphthalen-2-yl)butanoyl)piperidin-3-yl)-1H-benzo[d]imidazol-1-yl)ethyl)acetamide]",100 to 1000
